The IC50 is the concentration at which inhibition is half-maximal.

Some results are limits rather than exact numbers.

This test deals with human IDO1 (Homo sapiens, UniProt P14902). Briefly: Assessment of human IDO-1 inhibitory activity in HEK cells (human IDO1/HEK293 cells, kynurenine read-out with Ehrlich reagent, absorbance 490 nm). The class given is cell-based. The arrangement: expressed in transfected cells. As to conditions: HEK Human IDO-1 cellular assay. The procedure, abridged: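 Kynurenine output from stably IDO1-transfected HEK293 cells (10,000/well, phenol red-free RPMI, 10% FBS) after 20 h compound exposure at 37 °C. The reaction was stopped with 0.2% TCA and heated 30 min at 50 °C, then the supernatant was mixed with Ehrlich reagent and read at 490 nm. IC50 was set against DMSO and a 500 nM reference standard as 0 and 100% inhibition.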
human IDO1, sequence (P14902 whole entry): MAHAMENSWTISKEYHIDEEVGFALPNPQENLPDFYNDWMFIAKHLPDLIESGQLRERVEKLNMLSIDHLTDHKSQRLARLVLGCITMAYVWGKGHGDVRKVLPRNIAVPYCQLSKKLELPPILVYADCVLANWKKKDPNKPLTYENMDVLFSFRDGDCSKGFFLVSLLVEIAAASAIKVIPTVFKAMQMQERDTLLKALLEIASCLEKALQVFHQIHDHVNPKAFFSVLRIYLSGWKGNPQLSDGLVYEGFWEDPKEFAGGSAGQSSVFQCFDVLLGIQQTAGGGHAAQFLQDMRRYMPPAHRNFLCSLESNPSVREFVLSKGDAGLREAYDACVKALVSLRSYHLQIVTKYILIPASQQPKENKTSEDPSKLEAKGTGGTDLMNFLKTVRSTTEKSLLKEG

Take `CC(CC(=O)O)c1ccc(N2CCC[C@H]2C(C)(C)O)c(Nc2ccc(C#N)cc2)c1` (single isomer, unassigned) [Example 797]: the half-inhibitory concentration (IC50) is over 50 nM.
As to `CC(CC(=O)O)c1ccc(N2CCC[C@H]2C(C)(C)O)c(Nc2ccc(F)cc2)c1` (single isomer, unassigned) [Example 798], the IC50 is over 50 nM.
As for `CC(CC(=O)O)c1ccc(N2CCC[C@H]2C(C)(C)O)c(Nc2ccc(Cl)cc2)c1` (single isomer, unassigned) [Example 799], the IC50 is over 50 nM.
As for `CCOc1ncc(Nc2cc(C(C)CC(=O)O)ccc2N2CCC[C@H]2C(C)(C)O)cn1` (single isomer, unassigned) [Example 800], the IC50 is over 50 nM.
For `COc1ncc(Nc2cc(C(C)CC(=O)O)ccc2N2CCC[C@H]2C(C)(C)O)cn1` (single isomer, unassigned) [Example 801] the value was over 50 nM; for `CC(CC(=O)O)c1ccc(N2CCC[C@H]2C(C)(C)O)c(Nc2ccc(Cl)cc2)c1` (single isomer, unassigned) [Example 804], under 50 nM.
As for `CCOc1ccc(NC(=O)Nc2cc([C@H](CC)CC(=O)O)ccc2N2CCC[C@H]2C(C)(C)O)cc1` (single isomer, unassigned) [Example 810], the IC50 was over 50 nM.
Turning to `CCC(CC(=O)O)c1ccc(N2CCC[C@H]2C(C)(C)O)c(NC(=O)Nc2ccc(OC)cc2)c1` (single isomer, unassigned) [Example 811], the IC50 was over 50 nM.
`CCC(CC(=O)O)c1ccc(N2CCC[C@H]2C(C)(C)O)c(NC(=O)Nc2ccc(Cl)cc2F)c1` (single isomer, unassigned) [Example 812]: the IC50 is over 50 nM.
As to `CCC(CC(=O)O)c1ccc(N2CCC[C@H]2C(C)(C)O)c(NC(=O)Nc2ccc(F)cc2)c1` (single isomer, unassigned) [Example 813], the IC50 is over 50 nM.
As for `CCC(CC(=O)O)c1ccc(N2CCC[C@H]2C(C)(C)O)c(NC(=O)Nc2ccc(OC)cc2F)c1` (single isomer, unassigned) [Example 814], the IC50 is over 50 nM.
Take `CCC(CC(=O)O)c1ccc(N2CCC[C@H]2C(C)(C)O)c(NC(=O)Nc2cc(C)on2)c1` (single isomer, unassigned) [Example 815]: the IC50 is over 50 nM.
As to `CCOc1ccc(Nc2cc([C@H](CC)CC(=O)O)ccc2N2CCC[C@H]2C(C)(C)O)cc1` (single isomer, unassigned) [Example 816], the IC50 is over 50 nM.
To `CCC(CC(=O)O)c1ccc(N2CCC[C@H]2C(C)(C)O)c(Nc2ccnc(N3CCOCC3)n2)c1` (single isomer, unassigned) [Example 817] belongs over 50 nM; to `CCC(CC(=O)O)c1ccc(N2CCC[C@H]2C(C)(C)O)c(Nc2ccc(OCC3CC3)cc2)c1` (single isomer, unassigned) [Example 818], over 50 nM; to `CCc1ccc(Nc2cc(C(CC)CC(=O)O)ccc2N2CCC[C@H]2C(C)(C)O)cc1` (single isomer, unassigned) [Example 819], over 50 nM.
To `CCC(CC(=O)O)c1ccc(N2CCC[C@H]2C(C)(C)O)c(Nc2ccc(Cl)cc2)c1` (single isomer, unassigned) [Example 820] belongs under 5 nM.
As for `CCC(CC(=O)O)c1ccc(N2CCC[C@H]2C(C)(C)O)c(Nc2ccc3c(c2)OC(F)(F)O3)c1` (single isomer, unassigned) [Example 821], the IC50 is under 50 nM.
For the compound `CCC(CC(=O)O)c1ccc(N2CCC[C@H]2C(C)(C)O)c(Nc2cnc(OCC3CC3)nc2)c1` (single isomer, unassigned) [Example 822], the IC50 was over 50 nM.
Consider `CCOc1ncc(Nc2cc(C(CC)CC(=O)O)ccc2N2CCC[C@H]2C(C)(C)O)cn1` (single isomer, unassigned) [Example 823], for which the IC50 is under 50 nM.
Regarding `CCC(CC(=O)O)c1ccc(N2CCC[C@H]2C(C)(C)O)c(Nc2cnc(OC)nc2)c1` (single isomer, unassigned) [Example 824], the IC50 was over 50 nM.
Turning to `CCC(CC(=O)O)c1ccc(N2CCC[C@H]2C(C)(C)O)c(Nc2ccc(C#N)cc2)c1` (single isomer, unassigned) [Example 825], the IC50 was under 50 nM.
Regarding `CCOc1ccc(NC(=O)Nc2cc(C(CC)CC(=O)O)ccc2N2CCC[C@H]2C(C)(C)O)cc1` (single isomer, unassigned) [Example 826], the IC50 is over 50 nM.
As for `CCOc1ccc(Nc2cc(C(CC)CC(=O)O)ccc2N2CCC[C@H]2C(C)(C)O)cc1` (single isomer, unassigned) [Example 833], the IC50 was over 50 nM.
For the compound `CCC(CC(=O)O)c1ccc(N2CCC[C@H]2C(C)(C)O)c(Nc2ccc(Cl)cc2)c1` (single isomer, unassigned) [Example 836], the IC50 is under 50 nM.
Take `CCC(CC(=O)O)c1ccc(N2CCC[C@H]2C(C)(C)O)c(Nc2ccc3c(c2)OC(F)(F)O3)c1` (single isomer, unassigned) [Example 837]: the IC50 is over 50 nM.
With `CCOc1ncc(Nc2cc(C(CC)CC(=O)O)ccc2N2CCC[C@H]2C(C)(C)O)cn1` (single isomer, unassigned) [Example 839], the IC50 was over 50 nM.
For `CCC(CC(=O)O)c1ccc(N2CCC[C@H]2C(C)(C)O)c(Nc2ccc(F)cc2)c1` (single isomer, unassigned) [Example 840], the IC50 is under 50 nM.
Take `CC[C@H](CC(=O)O)c1ccc(N2CCC[C@@H]2C(C)(C)O)c(Nc2cnc(OCC3CC3)nc2)c1` (single isomer, unassigned) [Example 842]: the IC50 was over 50 nM.
For `CCOc1ncc(Nc2cc(C(CC)CC(=O)O)ccc2N2CCOC[C@H]2C(C)C)cn1` (single isomer, unassigned) [Example 891] the value was over 50 nM; for `CCC(CC(=O)O)c1ccc(N2CCOC[C@H]2C(C)C)c(Nc2ccc3nc(C)sc3c2)c1` (single isomer, unassigned) [Example 892], under 50 nM; for `CCC(CC(=O)O)c1ccc(N2CCOC[C@H]2C(C)C)c(Nc2ccc3c(c2)OC(F)(F)O3)c1` (single isomer, unassigned) [Example 893], over 50 nM.
Regarding `CCOc1ccc(Nc2cc(C(CC)CC(=O)O)ccc2N2CCOC[C@H]2C(C)C)cc1` (single isomer, unassigned) [Example 894], the IC50 was under 50 nM.
Consider `CCC(CC(=O)O)c1ccc(N2CCOC[C@H]2C(C)C)c(NC(=O)Nc2ccc(C)cc2)c1` (single isomer, unassigned) [Example 895], for which the IC50 was over 50 nM.
Turning to `CCC(CC(=O)O)c1ccc(N2CCOC[C@H]2C(C)C)c(NC(=O)Nc2ccc(Cl)cc2F)c1` (single isomer, unassigned) [Example 896], the IC50 was under 50 nM.
With `CCC(CC(=O)O)c1ccc(N2CCOC[C@H]2C(C)C)c(NC(=O)Nc2ccc(OC)cc2F)c1` (single isomer, unassigned) [Example 897], the IC50 was over 50 nM.
To `CCC(CC(=O)O)c1ccc(N2CCOC[C@H]2C(C)C)c(NC(=O)Nc2cc(C)on2)c1` (single isomer, unassigned) [Example 898] belongs over 50 nM; to `CCC(CC(=O)O)c1ccc(N2CCOC[C@H]2C(C)C)c(Nc2ccc(C#N)cc2)c1` (single isomer, unassigned) [Example 899], under 5 nM.
Regarding `CCC(CC(=O)O)c1ccc(N2CCOC[C@H]2C(C)C)c(Nc2ccc(Cl)cc2)c1` (single isomer, unassigned) [Example 900], the IC50 is under 5 nM.
As for `CCC(CC(=O)O)c1ccc(N2CCOC[C@H]2C(C)C)c(Nc2ccc(F)cc2)c1` (single isomer, unassigned) [Example 901], the IC50 was under 5 nM.
Consider `CCc1ccc(Nc2cc(C(CC)CC(=O)O)ccc2N2CCOC[C@H]2C(C)C)cc1` (single isomer, unassigned) [Example 902], for which the IC50 is under 5 nM.
On to `CCOc1ncc(Nc2cc(C(CC)CC(=O)O)ccc2N2CCOC[C@H]2C(C)C)cn1` (single isomer, unassigned) [Example 903], for which the IC50 is under 50 nM.
With `CCC(CC(=O)O)c1ccc(N2CCOC[C@H]2C(C)C)c(Nc2ccc3c(c2)OC(F)(F)O3)c1` (single isomer, unassigned) [Example 904], the IC50 is under 5 nM.
`CCC(CC(=O)O)c1ccc(N2CCOC[C@H]2C(C)C)c(Nc2cnc(OCC3CC3)nc2)c1` (single isomer, unassigned) [Example 905]: the half-inhibitory concentration (IC50) is over 50 nM.
With `CCC(CC(=O)O)c1ccc(N2CCOC[C@H]2C(C)C)c(Nc2cnc(OC)nc2)c1` (single isomer, unassigned) [Example 906], the IC50 is under 50 nM.
Regarding `COCC(CC(=O)O)c1cc(F)c(N(CC(C)C)CC(C)C)c(Nc2ccc3c(c2)OC(F)(F)O3)c1` (single isomer, unassigned) [Example 927, 3-(3-((2,2-difluorobenzo[d] [1,3]dioxol-5-yl)amino)-4-(diisobutylamino)-5-fluorophenyl)-4-methoxybutanoic acid.], the IC50 is under 50 nM.
`Cc1ccc(CC(=O)Nc2cc(C(C)CC(=O)O)ccc2N(CC(C)C)CC(C)C)cc1` (single isomer, unassigned) [Example 953, 3-(4-(Diisobutylamino)-3-(2-(p-tolyl)acetamido)phenyl)butanoic acid]: the IC50 was over 50 nM.
`Cc1ccc(CC(=O)Nc2cc(C(C)CC(=O)O)ccc2N(CC(C)C)CC(C)C)cc1` (single isomer, unassigned) [Example 954, 3-(4-(Diisobutylamino)-3-(2-(p-tolyl)acetamido)phenyl)butanoic acid]: the IC50 is under 50 nM.
`Cc1ccc(NC(=O)Nc2cc(C(C)CC(=O)O)c(F)cc2N(CC(C)C)C2CCCCC2)cc1` (single isomer, unassigned) [Example 956, 3-(4-(Cyclohexyl(isobutyl)amino)-2-fluoro-5-(3-(p-tolyl)ureido)phenyl)butanoic acid]: the 50% inhibitory concentration (IC50) is under 5 nM.

These data come from patent publication US9790169B2, “IDO inhibitors” (BRISTOL-MYERS SQUIBB COMPANY, priority 2015, dated 2017).
